Where “and” joins values, the source holds several entries; their conditions need not be identical. Equal entries are not always repeated.
Experiments:
MRGPRA1 = biological target: T1, MRGPRA1 (Mus musculus, UniProt Q91WW5); assay: [35S]GTPγS binding to MRGPRA1 membrane complexes; assay type: biochemical; conditions: 50 μM bilirubin
T1 construct: expressed in transfected cells
T1 sequence (Q91WW5 1-304): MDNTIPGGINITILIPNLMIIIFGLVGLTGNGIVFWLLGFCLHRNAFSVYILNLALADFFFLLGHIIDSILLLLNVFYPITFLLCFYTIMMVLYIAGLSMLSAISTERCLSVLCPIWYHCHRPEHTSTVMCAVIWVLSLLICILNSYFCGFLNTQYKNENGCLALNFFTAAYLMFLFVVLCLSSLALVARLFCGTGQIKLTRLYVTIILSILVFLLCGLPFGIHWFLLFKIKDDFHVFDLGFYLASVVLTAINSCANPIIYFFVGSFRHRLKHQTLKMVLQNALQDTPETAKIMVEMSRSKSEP
Description: MRGPR activation was determined by measuring binding of a radiolabelled and non-hydrolyzable form of GTP, [^35S]guanosine-5’-(γ-thio)triphosphate ([^35S]GTPγS) as previously described ([Vasavda et al., 2017]). Briefly, 10 µg of crude membrane fractions were diluted into 175 µL assay buffer (50 mM HEPES, 5 mM MgCl2, 100 mM NaCl, 1 mM EDTA, 0.1% […]) supplemented with 10 µM GDP and incubated at room temperature for 5 min. Membranes were then incubated an additional 1 min in a final volume of 199 μL assay buffer supplemented with 50 μM bilirubin. Samples were then brought to 200 μL with the addition of 10 nM [^35S]GTPγS. Samples were incubated for 2 hr at 4°C with gentle agitation. The experiment was terminated by rapid filtration onto GF/B filters and washed three times with wash buffer (50 mM Tris-HCl, 5 mM MgCl2, and 50 mM NaCl at pH 7.4). Filters were then immersed in scintillation cocktail and counted. Nonspecific binding was determined by competition with 10 μM unlabelled GTPγS. GTPγS binding assays were performed as two independent experiments, in triplicate.

DRG neurons = assay: Ca2+ imaging of cultured DRG neurons; assay type: cell-based, mouse; conditions: for Percent activated neurons: 50 µM bilirubin (Fig 3H)
Description: All cultured cells were maintained in DMEM supplemented with 10% FBS and 1% Penicillin/Streptomycin at 37°C, 5% CO2. […] Cells were imaged in calcium imaging buffer (CIB; 10 mM HEPES, 1.2 mM NaHCO3, 130 mM NaCl, 3 mM KCl, 2.5 mM CaCl2, 0.6 mM MgCl2, 20 mM glucose, and 20 mM sucrose at pH 7.4 and 290–300 mOsm). To monitor changes in intracellular [Ca^2+] ([Ca^2+]i), cells were loaded with either Fura 2-AM (HEK293 cells) or Fluo 4-AM (DRG neurons and mast cells) for 30 min in the dark at 37°C in CIB just prior to imaging. With Fura 2-AM, emission at 510 nm was monitored from excitation at both 340 nm and 380 nm. With Fluo 4-AM, emission at 520 nm was monitored from excitation at 488 nm. Cells were identified as responding if the intracellular [Ca^2+] rose by either 50% compared to baseline or 50% compared to the [Ca^2+]i change assayed during addition of 50 mM KCl (neurons only). Damaged, detached, high-baseline, and motion-activated cells were excluded from analysis.
DRGs were incubated with Fluo-4 AM 24 hr after dissociation (native genotype) or 48 hr after dissociation (virally transduced). Unless otherwise noted, cells were imaged for 20 seconds to establish a baseline before compounds were added. After 30 s, a 2 min wash was applied before addition of another substances. At the end of every imaging trial, 50 mM KCl was added as a positive control. […] For ruthenium red inhibitor experiments, neurons were incubated with 10 µM ruthenium red for 5 min prior to imaging. Percentage activated was determined as earlier described.
DRG neurons from all spinal levels were collected in cold DH10 media (90% Dulbecco’s modified Eagle’s medium (DMEM)/F-12, 10% FBS, penicillin (100 U/mL), and streptomycin (100 μg/mL)). DRGs were digested with a dispase (5 mg/ml)/collagenase type I (1 mg/ml) enzyme mixture at 37°C for 45 min. After trituration, cells were spun at 300 g and re-suspended in DH10 before being plated on glass coverslips coated with poly-D-lysine (0.5 mg/ml) and laminin (10 μg/ml, Invitrogen). DRGs were cultured with DH10 supplemented with 50 ng/mL NGF at 37°C.

DRG sensory neurons = assay: In vivo DRG calcium imaging in Pirt-Cre; lsl-GCaMP6s animals; design: species or system mouse; conditions: 5 μL of 100 μM bilirubin into the paw of GCaMP6s mice
Description: Adult mice expressing Pirt-Cre and lox-stop-lox GCaMP6s were anesthetized by i.p. injection of chloral hydrate (20 μl/gram of 25 mg/ml solution). The back was shaved and disinfected with alcohol before application of ophthalmic ointment (Lacrilube; Allergen Pharmaceuticals). A dorsal laminectomy was performed below the lumbar enlargement (L5) targeting S1. During the procedure, care was taken to keep dura intact. A 2 cm incision was made at the lumbar enlargement. 0.1 mL of 1% lidocaine was injected into paravertebral muscles before dissection to expose L3–L5 vertebrae. Using rongeurs, the surface aspect of the L4 DRG transverse process was removed and the underlying DRG exposed. Mice were laid abdomen-down on a custom-designed microscope stage and the spinal column was secured at two sites using clamps. Images were acquired using a laser-scanning confocal microscope (Leica LSI microscope) equipped with a […] 0.5 NA macro dry objective and fast EM-CCD camera. Live images were acquired at 8 to 10 frames in frame-scan mode per 7–8 s, at depths of […] below the dura with the DRG in the focal plane. […]
Raw image stacks were collected, deconvoluted, and imported into ImageJ (NIH). […] Calcium signaling amplitudes were expressed as Ft /F0 as a function of time. […]

## C=CC1=C(C)/C(=C/c2[nH]c(Cc3[nH]c(/C=C4\NC(=O)C(C)=C4C=C)c(C)c3CCC(=O)O)c(CCC(=O)O)c2C)NC1=O [bilirubin, bilirubin IXα]
MRGPRA1
  GTP binding to MRGPRA1 membrane complexes: increased GTP binding
MRGPRA1; MRGPRA1 membrane complexes (Fig 2K)
  [35S]GTPγS binding: 197 and 184 and 159
DRG neurons; A1 KO DRG
  Percent activated neurons: 1.8%
DRG neurons; Mrgpr-cluster KO DRG
  Percent activated neurons: 1.9%
DRG neurons; Tg(Mrgpra3-Cre);lsl-tdTomato neurons, 50 µM bilirubin (Fig 4D)
  Percent activated A3+ neurons: 51.4%
DRG neurons; WT DRG
  Percent activated neurons: approximately 5%
DRG neurons; WT DRG, listed as Bilirubin
  Percent activated neurons: 5.43%
DRG sensory neurons
  Activation of DRG sensory neurons in vivo: activated numerous DRG sensory neurons
